Key:
[1] = Stability of the cocrystal on heating (DSC experiments); assay type: physicochemical
Method: The cocrystal Form VII of the present invention may also be further characterized by DSC (differential scanning calorimetry) analysis as shown in FIG. 15. […] The cocrystal Form VII of the present invention may also be further characterized by having a melting range of about 109-120° C.
The cocrystal Form XVIII of the present invention may also be further characterized by DSC (differential scanning calorimetry) analysis as shown in FIG. 35.
The cocrystal Form XIX of the present invention may also be further characterized by DSC (differential scanning calorimetry) analysis as shown in FIG. 37.
DSC analyses were recorded with a Mettler Toledo DSC2. For cocrystals Forms […], and XI-XIX, the sample was weighed into a 40 μL aluminium crucible with a pinhole lid and was heated from 25 to 300° C. at a rate of 10° C./min, under nitrogen (50 mL/min). For cocrystals Form VII and VIII, the sample was weighed into a 40 μL aluminium crucible with a pinhole lid and was heated from 25 to 150° C. at a rate of 10° C./min, under nitrogen (50 mL/min).

[2] = in tablet
Method: (§1) X-ray power Diffraction (XRPD) measurements were performed at ambient conditions on a PANalytical X'Pert PRO θ-θ diffractometer of 240 mm of radius in reflection geometry, equipped with Cu Kα radiation and a PIXcel detector, operated at 45 kV and 40 mA. Each sample was mounted on a zero-background silicon holder and allowed to spin at 0.25 rev/s during the data collection.

[3] = open vial, accelerated stability conditions 40° C. and 75±5% relative humidity
Method: as §1
The aim of the study is to evaluate the stability of cocrystal Form I of the present invention.
Cocrystal Form I (55 mg) is stored in an open vial and exposed to accelerated stability conditions (40° C. and 75±5% relative humidity) according to ICH guidelines (Guidance for Industry Q1A(R2) Stability Testing of New Drug Substances and Products—available on the website http://www.ich.org/products/guidelines/quality/quality-single/article/stability-testing-of-new-drug-substances-and-products.html on Aug. 4, 2017).

| SMILES | remained stable after heating up to [1] | integrity of the cocrystal after its formulation (XRPD of the tablet) [2] | stability according to XRPD [3] |
| --- | --- | --- | --- |
| C=C(C)[C@@H]1CCC(C)=C[C@H]1c1c(O)cc(CCC)cc1O [Form XVIII, cocrystal wherein the cannabinoid is CBDV and L-proline] | up to 90 °C | – | – |
| CCCCCc1cc(O)c2c(c1)OC(C)(C)[C@@H]1CCC(C)=C[C@@H]21 [Form VII, cocrystal of (−)-(6aR,10aR)-6,6,9-trimethyl-3-pentyl-6a,7,8,10a-tetrahydro-6H-benzo[c]chromen-I-ol and L-proline] | up to 75 °C | maintained its integrity | – |
| C=C(C)[C@@H]1CCC(C)=C[C@H]1c1c(O)cc(CCCCC)cc1O [Form I, cocrystal of CBD and L-proline] | – | maintained its integrity | remained stable for at least three weeks |
| C=C(C)[C@@H]1CCC(C)=C[C@H]1c1c(O)cc(CCC)cc1O [Form XIX, cocrystal wherein the cannabinoid is CBDV and L-carnitine] | up to 110 °C | – | – |

— patent US11993563B2, “Solid compositions of cocrystals of cannabinoids” (priority 2018, dated 2024)
